Strand notation (5' to 3'): a small letter for the sugar, then the base; units joined by * are phosphorothioate-linked, units joined directly phosphodiester-linked; [ ] holds rarer units or linkages, { } end groups; capitals alone tell only the bases. k = constrained ethyl (cEt); [5mC] = 5-methylcytosine; d = 2'-deoxy (DNA)
System: Yap1 mRNA
Test: Antisense inhibition of human Yap1 in A-431 cells by cEt gapmers, single dose (Example 4, RTS4814)
Format: cell-based
In short: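 Values are % UTC: Yap1 mRNA by quantitative RT-PCR, normalized to RIBOGREEN total RNA. Cells were exposed ~48 h to 2,000 nM oligonucleotide without transfection. Oligonucleotides were 16-nucleoside gapmers with three cEt nucleosides per wing, ten-deoxy gap, P=S linkages throughout.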

[1] = Yap1 mRNA remaining as percent of untreated control, 3-10-3 cEt gapmers, A-431 cells, Table 37
[2] = Table 14, A-431 cells, 5,000 cells per well, free uptake, 2,000 nM, approximately 48 hours, RTS4814, normalized to RIBOGREEN, Yap1 mRNA relative to untreated control, * = targets amplicon region of primer probe set
[3] = Table 16, A-431 cells, 5,000 cells per well, free uptake, 2,000 nM, approximately 48 hours, RTS4814, normalized to RIBOGREEN, Yap1 mRNA relative to untreated control cells
[4] = Table 17, A-431 cells, 5,000 cells per well, free uptake, 2,000 nM, approximately 48 hours, RTS4814, normalized to RIBOGREEN, Yap1 mRNA relative to untreated control cells
[5] = Table 15, A-431 cells, 5,000 cells per well, free uptake, 2,000 nM, approximately 48 hours, RTS4814, normalized to RIBOGREEN, Yap1 mRNA relative to untreated control, * = targets amplicon region of primer probe set
[6] = Yap1 mRNA remaining as percent of untreated control, 3-10-3 cEt gapmers, A-431 cells, Table 36

## 1075927 (antisense kG*k[5mC]*kT*dT*dA*dA*dA*dA*dT*d[5mC]*dA*dT*dG*kT*kA*kG) [compound 1075927]
[1]
  YAP1 (% UTC): 32 % UTC

## 1076416 (kA*k[5mC]*k[5mC]*dG*dA*dA*dA*dT*dG*dA*dT*dA*d[5mC]*kT*kG*kA; antisense) [Compound 1076416]
[2]
  YAP1 (% UTC): 8 % UTC

## 1074178 (antisense kG*k[5mC]*k[5mC]*dT*d[5mC]*d[5mC]*d[5mC]*d[5mC]*d[5mC]*dG*dA*d[5mC]*dG*k[5mC]*kG*k[5mC]) [Compound 1074178]
[3]
  YAP1 (% UTC): 95 % UTC

## 1075586 (kT*kA*kT*dT*dA*dG*d[5mC]*dA*d[5mC]*d[5mC]*dT*dG*dG*kG*kT*kA; antisense) [Compound 1075586]
[3]
  YAP1 (% UTC): 64 % UTC

## 1075968 (kT*kA*kT*dT*dT*dA*dA*dG*d[5mC]*d[5mC]*dA*dA*dA*k[5mC]*k[5mC]*kG; antisense) [Compound 1075968]
[2]
  YAP1 (% UTC): 5 % UTC

## 1076131 (kT*kA*kT*dT*dA*dT*dG*dA*dG*dG*dA*d[5mC]*dT*kG*kA*kT; antisense) [Compound 1076131]
[4]
  YAP1 (% UTC): 23 % UTC

## 1075200 (antisense k[5mC]*kA*kT*dA*dT*dT*dA*dA*d[5mC]*dT*dA*dG*dA*kT*kG*kA) [Compound 1075200]
[2]
  YAP1 (% UTC): 120 % UTC

## 1075523 (kA*kA*kT*dT*dA*dA*dG*dG*dG*d[5mC]*d[5mC]*d[5mC]*dA*k[5mC]*kA*kA; antisense) [Compound 1075523]
[4]
  YAP1 (% UTC): 78 % UTC

## 1074871 (kT*kG*kT*dA*dA*dG*dT*dA*d[5mC]*d[5mC]*dT*dA*dA*k[5mC]*kA*kT; antisense) [compound 1074871]
[1]
  YAP1 (% UTC): 70 % UTC

## 1074369 (antisense kT*kG*kA*dT*dA*dG*dT*dA*dT*d[5mC]*dA*d[5mC]*d[5mC]*kT*kG*kT) [Compound 1074369]
[5]
  YAP1 (% UTC): 19 % UTC

## 1076258 (k[5mC]*kT*kT*dT*dA*dG*dG*dT*dG*d[5mC]*d[5mC]*dT*d[5mC]*k[5mC]*kT*kT; antisense) [Compound 1076258]
[3]
  YAP1 (% UTC): 10 % UTC

## 1075649 (k[5mC]*kT*kT*d[5mC]*dA*dA*dT*dA*dA*dA*dG*dT*dG*kG*kG*kA; antisense) [Compound 1075649]
[5]
  YAP1 (% UTC): 56 % UTC

## 1074465 (kA*kA*kT*d[5mC]*dT*dA*dT*dA*dT*dT*dA*dG*dA*kG*kT*kA; antisense) [Compound 1074465]
[5]
  YAP1 (% UTC): 44 % UTC

## 1075255 (kA*kA*kA*dT*dA*dT*d[5mC]*d[5mC]*dG*dT*dG*dT*d[5mC]*k[5mC]*kT*k[5mC]; antisense) [compound 1075255]
[1]
  YAP1 (% UTC): 16 % UTC

## 1074401 (antisense kT*k[5mC]*k[5mC]*dG*dG*dT*dG*d[5mC]*dA*dT*dG*dT*dG*kT*k[5mC]*kT) [Compound 1074401]
[5]
  YAP1 (% UTC): 18 % UTC

## 1074998 (antisense k[5mC]*kA*k[5mC]*dG*d[5mC]*dG*dA*d[5mC]*d[5mC]*dT*dA*d[5mC]*dT*kA*kA*kG) [compound 1074998]
[6]
  YAP1 (% UTC): 61 % UTC

## 1074582 (DNA kT*kA*kA*dA*d[5mC]*d[5mC]*dA*d[5mC]*dT*dA*dT*dA*dA*kA*kG*k[5mC]; antisense) [compound 1074582]
[6]
  YAP1 (% UTC): 18 % UTC

## 1076535 (kA*kT*kT*dT*dT*dT*dA*dG*d[5mC]*dT*d[5mC]*dG*d[5mC]*kA*kA*kT; antisense) [compound 1076535]
[1]
  YAP1 (% UTC): 28 % UTC

## 1076194 (kT*kT*kT*dA*dA*dT*dA*d[5mC]*dA*d[5mC]*dA*dG*dG*kT*kT*k[5mC]; antisense) [Compound 1076194]
[3]
  YAP1 (% UTC): 22 % UTC

## 1076310 (kA*k[5mC]*k[5mC]*d[5mC]*dT*dA*dT*dA*d[5mC]*dT*dT*dG*dA*kA*kT*kT; antisense) [compound 1076310]
[6]
  YAP1 (% UTC): 36 % UTC

## 1075331 (kG*kA*kT*dA*dA*dA*d[5mC]*dA*d[5mC]*dT*dG*d[5mC]*dA*kG*kA*kG; antisense) [Compound 1075331]
[4]
  YAP1 (% UTC): 33 % UTC

## 1076513 (antisense k[5mC]*kA*kT*dT*dA*dA*d[5mC]*dA*d[5mC]*dT*d[5mC]*d[5mC]*dT*k[5mC]*kA*kG) [Compound 1076513]
[5]
  YAP1 (% UTC): 36 % UTC

## 1075863 (antisense k[5mC]*k[5mC]*kT*dA*dA*dT*dA*dA*d[5mC]*dT*dT*dG*dT*k[5mC]*kT*kA) [compound 1075863]
[1]
  YAP1 (% UTC): 71 % UTC

## 1076567 (kG*kA*kT*dT*dA*d[5mC]*dA*dG*dT*dG*dA*d[5mC]*dA*kT*kT*k[5mC]; antisense) [compound 1076567]
[1]
  YAP1 (% UTC): 10 % UTC

## 1075777 (kT*kA*kT*dG*dT*dG*dA*dT*dA*dT*dG*dG*dA*kT*kT*k[5mC]; antisense) [Compound 1075777]
[5]
  YAP1 (% UTC): 12 % UTC

## 1076385 (kA*kT*kA*dT*dA*dA*dG*dG*dG*dA*d[5mC]*dT*dT*kG*k[5mC]*kT; antisense) [Compound 1076385]
[5]
  YAP1 (% UTC): 32 % UTC

## 1074720 (antisense kG*kA*kA*dG*dA*dT*d[5mC]*dT*d[5mC]*d[5mC]*dA*dT*dA*kT*kT*k[5mC]) [Compound 1074720]
[2]
  YAP1 (% UTC): 58 % UTC

## 1076065 (k[5mC]*kT*kT*dT*dA*dG*dT*dA*dA*d[5mC]*dA*d[5mC]*dG*kA*kA*kT; antisense) [Compound 1076065]
[5]
  YAP1 (% UTC): 36 % UTC

## 1075843 (k[5mC]*kA*kT*dG*dA*dA*dA*dT*dG*dA*dT*dG*dG*kA*kA*k[5mC]; antisense) [Compound 1075843]
[4]
  YAP1 (% UTC): 47 % UTC

## 1075969 (kG*kT*kA*dT*dT*dT*dA*dA*dG*d[5mC]*d[5mC]*dA*dA*kA*k[5mC]*k[5mC]; antisense) [Compound 1075969]
[5]
  YAP1 (% UTC): 11 % UTC

## 1075040 (antisense kT*kT*kA*dT*dA*dA*dA*dG*dA*dG*dG*d[5mC]*dT*k[5mC]*kA*kG) [Compound 1075040]
[2]
  YAP1 (% UTC): 10 % UTC

## 1074231 (antisense kA*kA*kA*dG*dA*dA*dG*dA*d[5mC]*dT*dG*dT*d[5mC]*kG*kA*kA) [compound 1074231]
[1]
  YAP1 (% UTC): 8 % UTC

## 1076226 (k[5mC]*kA*kT*dA*dT*dA*dA*dA*d[5mC]*d[5mC]*dT*dT*dG*k[5mC]*kT*kA; antisense) [Compound 1076226]
[3]
  YAP1 (% UTC): 36 % UTC

## 1075744 (kT*kT*k[5mC]*dG*dG*dG*dT*dT*dA*dG*d[5mC]*dA*dG*kA*k[5mC]*kT; antisense) [Compound 1075744]
[2]
  YAP1 (% UTC): 6 % UTC

## 1075555 (kG*k[5mC]*k[5mC]*dA*dA*dA*dA*dA*dT*dT*d[5mC]*dT*dT*kG*k[5mC]*kA; antisense) [Compound 1075555]
[4]
  YAP1 (% UTC): 92 % UTC

## 1075328 (k[5mC]*kT*k[5mC]*dG*d[5mC]*dA*dA*dA*dG*d[5mC]*d[5mC]*dT*d[5mC]*kT*kT*k[5mC]; antisense) [Compound 1075328]
[2]
  YAP1 (% UTC): 21 % UTC

## 1075799 (k[5mC]*k[5mC]*kT*d[5mC]*dA*dA*d[5mC]*dA*d[5mC]*dA*dT*dT*dT*kG*kA*kG; antisense) [compound 1075799]
[1]
  YAP1 (% UTC): 85 % UTC

## 1074243 (antisense kT*k[5mC]*kT*dG*dA*d[5mC]*d[5mC]*dA*dG*dA*dA*dG*dA*kT*kG*kT) [Compound 1074243]
[4]
  YAP1 (% UTC): 60 % UTC

## 1076545 (antisense kA*kA*k[5mC]*d[5mC]*dA*dA*d[5mC]*d[5mC]*dT*dT*d[5mC]*d[5mC]*d[5mC]*kT*kA*k[5mC]) [Compound 1076545]
[5]
  YAP1 (% UTC): 68 % UTC

## 1074166 (antisense kA*k[5mC]*k[5mC]*d[5mC]*dA*dG*dG*d[5mC]*dG*dA*dG*d[5mC]*dG*kA*kG*kG) [compound 1074166]
[6]
  YAP1 (% UTC): 72 % UTC

## 1074562 (antisense kG*kA*kA*dT*dT*d[5mC]*d[5mC]*dA*dA*dT*d[5mC]*dG*dA*kG*kA*k[5mC]) [Compound 1074562]
[3]
  YAP1 (% UTC): 30 % UTC

## 1074528 (k[5mC]*kT*kG*d[5mC]*d[5mC]*d[5mC]*d[5mC]*dA*dA*d[5mC]*d[5mC]*dA*dG*kA*kT*kT; antisense) [Compound 1074528]
[2]
  YAP1 (% UTC): 25 % UTC

## 1074976 (antisense kT*kT*k[5mC]*dT*dA*dT*dT*dG*dG*dA*dA*dG*dA*k[5mC]*k[5mC]*kA) [Compound 1074976]
[2]
  YAP1 (% UTC): 35 % UTC

## 1075703 (kG*kG*kA*dG*dA*dA*dA*dG*d[5mC]*d[5mC]*dA*dT*d[5mC]*kA*kA*kG; antisense) [compound 1075703]
[1]
  YAP1 (% UTC): 10 % UTC

## 1074167 (antisense k[5mC]*kG*k[5mC]*dA*d[5mC]*d[5mC]*d[5mC]*d[5mC]*d[5mC]*dT*dG*dA*d[5mC]*k[5mC]*k[5mC]*kA) [compound 1074167]
[1]
  YAP1 (% UTC): 58 % UTC

## 1075648 (kT*k[5mC]*kA*dA*dT*dA*dA*dA*dG*dT*dG*dG*dG*kA*k[5mC]*kT; antisense) [Compound 1075648]
[2]
  YAP1 (% UTC): 67 % UTC

## 1074358 (antisense kT*k[5mC]*kG*dA*dG*dG*dG*dA*d[5mC]*dA*d[5mC]*dT*dG*kT*kA*kG) [compound 1074358]
[6]
  YAP1 (% UTC): 17 % UTC

## 1074359 (antisense kT*kT*k[5mC]*dG*dA*dG*dG*dG*dA*d[5mC]*dA*d[5mC]*dT*kG*kT*kA) [compound 1074359]
[1]
  YAP1 (% UTC): 18 % UTC

## 1074305 (antisense k[5mC]*kA*k[5mC]*d[5mC]*dT*dG*d[5mC]*d[5mC]*dG*dA*dA*dG*d[5mC]*kA*kG*kT) [Compound 1074305]
[5]
  YAP1 (% UTC): 64 % UTC

Source: US11214803B2, “Modulators of YAP1 expression” (Ionis Pharmaceuticals, Inc., priority 2019, dated 2022)
